# In patent publication US4952605A (priority 1988, dated 1990):
# Experiments:
# [1] = tested on: PMA-induced ear edema (inflammation) in mice; assay: Mouse ear anti-inflammatory assay (PMA-induced edema); type: in vivo; conditions: for relative increase in ear weight: statistically significant difference
# Method: Test compound and phorbol myristate acetate (PMA) are topically applied simultaneously to the pinnae of the left ears of mice. PMA alone is applied to the right ear. Three hours and 20 minutes after application, the mice are sacrificed, left and right ears removed, and standard sized bores taken. Edema (inflammation) is measured as the difference in weight between left and right ears (C. G. Van Arman, Clin Pharmacol Ther (1974) 16:900-904).
# The results of separate, similar experiments are set forth below (*=statistically significant difference).
# In another separate experiment, the effect of dehydro-seco-manoalide was determined (PMA=15 μg/ear).
# In separate, similar experiments, where […] was at 1.5 ug/ear, luffariellin A and B (50 ug/ear) gave statistically significant differences in relative increase in ear weight (0.308±0.065 and 0.262±0.053, respectively) as compared to PNA alone (0.618± 0.113); as did 50 ug luffariellolide (0.221±0.068) as compared to PMA alone (0.929±0.200).
# bee venom PLA2 = bee venom PLA2 (Apis mellifera, UniProt P00630); assay: biochemical; conditions: pH 7.4
# [2] = tested on: Chinese hamster ovary K1 cells; assay: Effect on CHO cell growth; type: cell-based; conditions: Cricetulus griseus
# Method: Chinese hamster ovary K1 cells are maintained in Dulbecco's Modified Eagle's Medium at 36° C. with 95% air and 5% CO2. Cells are transferred into 35 mm culture dishes, allowed 24 hours to adhere, then exposed to medium containing drug for the duration of the experiment. The number of adhered cells is counted at 24, 48, and 72 hours after initial exposure to drug.
# [3] = biological target: bee venom phospholipase A2 (PLA2) (Apis mellifera, UniProt P00630); assay: biochemical; conditions: for inhibition at 0.75 µM: pH 7.4, read-out: Percent Inhibition of PLA2; for inhibition at 0.25 µM / inhibition at 0.5 µM / inhibition at 2 µM / inhibition at 4 µM: pH 7.4, read-out: Percent Inhibition of PLA2; for inhibition at 0.5 µM: 0.50 uM
# [4] = 50 ug/ear, PNA [sic] 1.5 ug/ear, PNA alone 0.618±0.113
# [5] = dose 25.0 ug/ear topical, PMA 1.5 ug/ear, untreated 9.3 mg, PMA alone 23 mg, *=statistically significant
# [6] = dose 50.0 ug/ear topical, PMA 1.5 ug/ear, untreated 9.3 mg, PMA alone 23 mg, *=statistically significant
# bee venom phospholipase A2 (PLA2), sequence (P00630 34-167 limits assumed): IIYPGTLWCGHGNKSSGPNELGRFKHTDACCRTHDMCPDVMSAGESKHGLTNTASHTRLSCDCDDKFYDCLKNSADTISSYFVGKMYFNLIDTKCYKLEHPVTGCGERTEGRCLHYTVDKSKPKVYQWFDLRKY
# bee venom PLA2, sequence (P00630 34-167 limits assumed): as above
compound,measurement,setting,value
C=C(C)C1(CCC(C)=CCCC(C=O)=CCC(O)C2=CC(=O)OC2O)CCCC1C (stereo not shown) [luffariellin B],relative increase in ear weight,[1]; [4],0.262±0.053
"CC(=CCCC1=CC(=O)OC1O)CCC=C(C)CCC1=C(C)CCCC1(C)C (stereo not shown) [luffariellolide, 3-(4,8-dimethyl-10-(2,6,6-trimethylcyclohexenyl)-deca,7-dienyl)-4-hydroxybutenolide]",relative increase in ear weight,"[1]; 50 ug, PMA alone 0.929±0.200",0.221±0.068
same,inhibition at 0.25 µM,bee venom PLA2; 0.25 uM,59%
same,inhibition at 0.5 µM,bee venom PLA2; 0.5 uM,59.7%
same,inhibition at 1 µM,bee venom PLA2; 1.0 uM,62.6%
same,inhibition at 42 µM,[2]; 24 hours,63%
same,inhibition at 42 µM,[2]; 48 hours,74%
same,inhibition at 42 µM,[2]; 72 hours,71%
"CC(=CCCC(=CCC(O)C1=CC(=O)OC1)CO)CCC1=C(C)CCCC1(C)C (stereo not shown) [Manoalide Diol, 3,7-Bis(hydroxymethyl)-4-hydroxy-11-methyl-13-(2,6,6-trimethylcyclohexenyl)-2,6,10-tridecatrienoic acid gamma-lactone]",Average Ear Weight,[1]; [5],14.54 mg/ear
same,Average Ear Weight,[1]; [6],13.17 mg/ear
"CC(=CCCC1=CCC(C2=CC(=O)OC2O)OC1O)CCC1=C(C)CCCC1(C)C (stereo not shown) [Manoalide, reference compound]",Average Ear Weight,"[1]; dose 7.5 ug/ear topical, PMA 1.5 ug/ear, untreated 9.3 mg, PMA alone 23 mg, *=statistically significant",20.45 mg/ear
same,Average Ear Weight,"[1]; dose 10.0 ug/ear topical, PMA 1.5 ug/ear, untreated 9.3 mg, PMA alone 23 mg, *=statistically significant",19.75 mg/ear
same,Average Ear Weight,"[1]; dose 20.0 ug/ear topical, PMA 1.5 ug/ear, untreated 9.3 mg, PMA alone 23 mg, *=statistically significant",17.00 mg/ear
same,Average Ear Weight,"[1]; dose 40.0 ug/ear topical, PMA 1.5 ug/ear, untreated 9.3 mg, PMA alone 23 mg, *=statistically significant",16.80 mg/ear
same,Average Ear Weight,"[1]; dose 80.0 ug/ear topical, PMA 1.5 ug/ear, untreated 9.3 mg, PMA alone 23 mg, *=statistically significant",12.90 mg/ear
same,Average Ear Weight,"[1]; dose 160.0 ug/ear topical, PMA 1.5 ug/ear, untreated 9.3 mg, PMA alone 23 mg, *=statistically significant",12.60 mg/ear
same,Average Ear Weight,"[1]; dose 320.0 ug/ear topical, PMA 1.5 ug/ear, untreated 9.3 mg, PMA alone 23 mg, *=statistically significant",11.20 mg/ear
same,inhibition at 0.75 µM,[3],73.5%
same,inhibition at 0.25 µM,[3],20.7%
same,inhibition at 0.5 µM,[3],48%
same,inhibition at 2 µM,[3],92.8%
same,inhibition at 4 µM,[3],94.5%
"CC(=CCCC1=CCC(C2=CC(=O)OC2O)OC1=O)CCC1=C(C)CCCC1(C)C (stereo not shown) [Manoalide delta Lactone, manoalide delta-lactone]",Average Ear Weight,[1]; [5],16.28 mg/ear
same,Average Ear Weight,[1]; [6],14.87 mg/ear
CC(=CCCC(C=O)=CC=CC1=CC(=O)OC1O)CCC1=C(C)CCCC1(C)C (stereo not shown) [Dehydro-seco-manoalide],relative potency of dehydro-seco-manoalide to manoalide,"[1]; from dose/response data, relative to manoalide",1.32
same,Average Ear Weight,"[1]; separate experiment, dose 50 ug/ear, PMA=15 μg/ear, no agent 24.60 mg/ear",14.30 mg/ear
same,inhibition at 0.75 µM,[3],51.3%
same,inhibition at 0.25 µM,[3],30.3%
same,inhibition at 0.5 µM,[3],61.8%
same,inhibition at 2 µM,[3],72.4%
same,inhibition at 4 µM,[3],87.3%
C=C(C)C1(CCC(C)=CCCC2=CCC(C3=CC(=O)OC3O)OC2O)CCCC1C (stereo not shown) [luffariellin A],relative increase in ear weight,[1]; [4],0.308±0.065
"CC(=O)OC1OC(=O)C=C1C1CC=C(CCC=C(C)CCC2=C(C)CCCC2(C)C)C(=O)O1 (stereo not shown) [Manoalide delta Lactone Acetate, manoalide delta-lactone acetate]",Average Ear Weight,[1]; [5],16.64 mg/ear
same,Average Ear Weight,[1]; [6],13.34 mg/ear
